This note sets out measurements from ChEMBL document CHEMBL1909046, “DrugMatrix in vitro pharmacology data”.

Data set [1] deals with Delta-type opioid receptor (Homo sapiens, UniProt P41143). The data set is classed as cell membranes, HEK293, Membrane. Particulars: hek293.
A further data set concerns the target Mu-type opioid receptor (Homo sapiens, UniProt P35372). Description: DRUGMATRIX: Opiate mu (OP3, MOP) radioligand binding (ligand: [3H] Diprenorphine). The data set is classed as cell membranes, CHO-K1, Membrane. Particulars: Not Active = under 50% inhibition at 10 µM.
The target of another data set is T1, Cytochrome P450 2A6 (Homo sapiens, UniProt P11509).
T1 sequence (P11509 whole entry): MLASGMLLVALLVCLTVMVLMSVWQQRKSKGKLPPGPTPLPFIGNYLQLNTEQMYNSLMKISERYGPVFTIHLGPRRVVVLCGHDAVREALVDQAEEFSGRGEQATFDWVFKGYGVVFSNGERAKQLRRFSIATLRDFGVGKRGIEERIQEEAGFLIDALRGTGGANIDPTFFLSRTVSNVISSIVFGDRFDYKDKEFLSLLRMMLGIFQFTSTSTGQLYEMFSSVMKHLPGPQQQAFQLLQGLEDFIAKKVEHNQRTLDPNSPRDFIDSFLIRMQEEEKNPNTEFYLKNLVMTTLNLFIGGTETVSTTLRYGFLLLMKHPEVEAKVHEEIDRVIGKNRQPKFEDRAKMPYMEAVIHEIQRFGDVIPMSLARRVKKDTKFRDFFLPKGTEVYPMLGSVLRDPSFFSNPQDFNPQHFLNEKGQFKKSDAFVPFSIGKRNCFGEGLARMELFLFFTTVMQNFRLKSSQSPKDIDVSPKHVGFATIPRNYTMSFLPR
Particulars: bti-tn-5b1-4.

In another data set the target is Insulin receptor (Rattus norvegicus, UniProt P15127). Type of data set: cell membranes, Wistar, Liver, Membrane. Also: in other assays of this panel Not Active means under 50% inhibition at 10 µM.
Insulin receptor, sequence (P15127 27-759 limits assumed): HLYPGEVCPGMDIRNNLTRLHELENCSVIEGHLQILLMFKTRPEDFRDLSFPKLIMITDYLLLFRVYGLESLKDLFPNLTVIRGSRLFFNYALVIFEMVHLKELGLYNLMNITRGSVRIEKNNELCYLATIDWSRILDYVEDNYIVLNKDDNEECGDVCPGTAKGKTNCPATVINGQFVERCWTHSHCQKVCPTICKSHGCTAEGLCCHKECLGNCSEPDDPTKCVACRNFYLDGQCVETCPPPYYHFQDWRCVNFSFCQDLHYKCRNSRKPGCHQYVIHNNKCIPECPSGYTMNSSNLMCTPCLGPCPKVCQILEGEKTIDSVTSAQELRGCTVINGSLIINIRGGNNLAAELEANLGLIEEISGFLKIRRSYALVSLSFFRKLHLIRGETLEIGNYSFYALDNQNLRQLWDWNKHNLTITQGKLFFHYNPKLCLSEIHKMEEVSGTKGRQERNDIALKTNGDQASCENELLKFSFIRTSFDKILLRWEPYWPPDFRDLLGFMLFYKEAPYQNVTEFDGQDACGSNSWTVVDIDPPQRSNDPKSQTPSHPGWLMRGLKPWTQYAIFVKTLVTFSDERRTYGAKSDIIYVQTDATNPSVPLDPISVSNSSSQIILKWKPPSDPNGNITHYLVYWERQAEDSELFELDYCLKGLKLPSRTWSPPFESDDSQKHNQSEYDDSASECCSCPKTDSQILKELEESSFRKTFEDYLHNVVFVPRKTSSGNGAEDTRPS
Insulin receptor, sequence (P15127 764-1383 limits assumed): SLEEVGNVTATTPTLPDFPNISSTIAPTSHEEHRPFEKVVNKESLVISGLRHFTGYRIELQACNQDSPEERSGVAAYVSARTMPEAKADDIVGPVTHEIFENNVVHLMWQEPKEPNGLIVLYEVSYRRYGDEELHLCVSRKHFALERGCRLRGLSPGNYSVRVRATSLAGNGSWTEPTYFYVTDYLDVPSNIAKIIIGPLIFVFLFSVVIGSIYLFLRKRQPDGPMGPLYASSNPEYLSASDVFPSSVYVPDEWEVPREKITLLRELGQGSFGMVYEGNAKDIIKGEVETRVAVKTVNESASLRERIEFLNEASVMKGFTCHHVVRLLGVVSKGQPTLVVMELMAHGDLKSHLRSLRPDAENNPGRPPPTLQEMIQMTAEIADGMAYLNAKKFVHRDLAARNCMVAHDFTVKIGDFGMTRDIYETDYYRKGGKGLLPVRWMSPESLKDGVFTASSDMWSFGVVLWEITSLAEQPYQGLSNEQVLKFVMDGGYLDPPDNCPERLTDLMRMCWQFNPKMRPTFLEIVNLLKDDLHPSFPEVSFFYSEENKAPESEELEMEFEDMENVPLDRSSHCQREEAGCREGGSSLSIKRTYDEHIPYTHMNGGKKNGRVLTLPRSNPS
A further data set addresses T2, Leukotriene C4 synthase (Cavia porcellus, UniProt A6XA80).
T2 sequence (A6XA80 whole entry): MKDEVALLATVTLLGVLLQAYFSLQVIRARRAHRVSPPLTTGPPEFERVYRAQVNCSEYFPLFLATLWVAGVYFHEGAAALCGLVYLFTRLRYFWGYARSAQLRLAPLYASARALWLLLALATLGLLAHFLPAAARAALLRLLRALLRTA
The data set is classed as tissue-based, Lung.

Data set [2] has as its target T3, Angiotensin-converting enzyme (Oryctolagus cuniculus, UniProt P12822).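 Also: enzymatic inhibition of angiotensin-converting enzyme measured with FAPGG as the substrate; in other assays of this panel Not Active means under 50% inhibition at 10 µM.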
T3 sequence (P12822 whole entry): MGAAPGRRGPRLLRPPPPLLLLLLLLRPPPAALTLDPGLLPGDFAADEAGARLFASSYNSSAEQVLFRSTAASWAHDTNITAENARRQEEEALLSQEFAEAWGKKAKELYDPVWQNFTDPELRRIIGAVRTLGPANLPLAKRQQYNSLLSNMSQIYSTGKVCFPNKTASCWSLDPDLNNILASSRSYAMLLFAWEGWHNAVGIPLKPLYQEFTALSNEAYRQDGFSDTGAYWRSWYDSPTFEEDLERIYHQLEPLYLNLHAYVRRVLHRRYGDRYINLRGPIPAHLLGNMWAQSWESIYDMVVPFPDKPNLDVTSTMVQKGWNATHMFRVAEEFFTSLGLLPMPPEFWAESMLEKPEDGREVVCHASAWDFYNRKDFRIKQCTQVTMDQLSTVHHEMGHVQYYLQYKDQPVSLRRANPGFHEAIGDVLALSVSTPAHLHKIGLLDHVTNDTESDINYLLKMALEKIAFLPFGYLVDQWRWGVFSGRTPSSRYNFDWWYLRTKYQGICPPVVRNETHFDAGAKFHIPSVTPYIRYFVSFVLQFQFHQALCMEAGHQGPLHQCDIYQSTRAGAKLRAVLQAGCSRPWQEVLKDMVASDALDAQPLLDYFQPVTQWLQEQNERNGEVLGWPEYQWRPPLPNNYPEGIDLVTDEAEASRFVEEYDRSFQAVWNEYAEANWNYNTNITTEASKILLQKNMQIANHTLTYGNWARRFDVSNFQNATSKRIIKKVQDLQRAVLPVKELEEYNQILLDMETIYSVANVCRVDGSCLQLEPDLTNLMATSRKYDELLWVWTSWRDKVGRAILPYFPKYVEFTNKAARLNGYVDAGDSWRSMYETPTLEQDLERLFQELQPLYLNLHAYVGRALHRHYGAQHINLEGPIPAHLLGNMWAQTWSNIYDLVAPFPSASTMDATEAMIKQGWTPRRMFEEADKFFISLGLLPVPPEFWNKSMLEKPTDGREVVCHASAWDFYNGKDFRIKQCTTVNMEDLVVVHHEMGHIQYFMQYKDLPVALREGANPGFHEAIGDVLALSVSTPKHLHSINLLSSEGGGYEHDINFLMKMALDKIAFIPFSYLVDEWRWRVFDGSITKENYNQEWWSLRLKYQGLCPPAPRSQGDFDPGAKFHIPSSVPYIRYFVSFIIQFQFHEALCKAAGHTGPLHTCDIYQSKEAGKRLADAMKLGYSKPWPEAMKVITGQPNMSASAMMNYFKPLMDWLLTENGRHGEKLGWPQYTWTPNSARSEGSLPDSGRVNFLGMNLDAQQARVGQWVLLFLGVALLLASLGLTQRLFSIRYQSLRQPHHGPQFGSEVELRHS
The data set is classed as tissue-based, Lung.

The target of data set [3] is Sigma non-opioid intracellular receptor 1 (Homo sapiens, UniProt Q99720). In words: DRUGMATRIX: Sigma1 radioligand binding (ligand: [3H] Haloperidol). Particulars: jurkat; Not Active = under 50% inhibition at 10 µM. Type of data set: cell membranes, Jurkat, Membrane.
Sigma non-opioid intracellular receptor 1, sequence (Q99720 whole entry): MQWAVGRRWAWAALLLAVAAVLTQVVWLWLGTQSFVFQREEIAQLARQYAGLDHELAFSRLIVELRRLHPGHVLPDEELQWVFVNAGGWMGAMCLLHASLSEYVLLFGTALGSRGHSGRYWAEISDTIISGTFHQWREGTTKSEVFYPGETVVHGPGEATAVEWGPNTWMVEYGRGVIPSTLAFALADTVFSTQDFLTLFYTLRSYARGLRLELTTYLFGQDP

Delta-type opioid receptor, sequence (P41143 whole entry): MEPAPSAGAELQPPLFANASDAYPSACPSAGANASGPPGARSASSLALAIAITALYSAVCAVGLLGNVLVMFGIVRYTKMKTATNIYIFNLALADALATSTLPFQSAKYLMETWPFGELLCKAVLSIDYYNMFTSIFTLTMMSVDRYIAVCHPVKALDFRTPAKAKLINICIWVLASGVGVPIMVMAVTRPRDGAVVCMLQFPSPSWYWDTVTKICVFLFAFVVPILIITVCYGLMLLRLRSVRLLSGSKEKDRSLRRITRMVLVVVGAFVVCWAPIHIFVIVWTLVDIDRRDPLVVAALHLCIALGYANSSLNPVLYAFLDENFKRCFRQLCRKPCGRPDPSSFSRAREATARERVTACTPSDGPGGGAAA
Mu-type opioid receptor, sequence (P35372 whole entry): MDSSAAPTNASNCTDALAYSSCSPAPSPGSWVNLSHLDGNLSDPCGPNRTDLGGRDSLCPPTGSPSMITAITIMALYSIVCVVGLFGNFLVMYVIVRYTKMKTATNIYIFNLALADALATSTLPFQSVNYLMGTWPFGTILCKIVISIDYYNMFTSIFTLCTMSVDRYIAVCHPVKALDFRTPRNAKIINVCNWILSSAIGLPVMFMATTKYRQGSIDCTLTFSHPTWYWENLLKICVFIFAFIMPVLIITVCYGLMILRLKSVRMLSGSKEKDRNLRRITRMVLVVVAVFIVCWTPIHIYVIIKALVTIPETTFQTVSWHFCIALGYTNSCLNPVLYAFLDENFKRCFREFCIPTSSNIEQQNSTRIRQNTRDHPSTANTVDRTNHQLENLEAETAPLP

Turning to `CC1(C)O[C@@H]2C[C@H]3[C@@H]4C[C@H](F)C5=CC(=O)C=C[C@]5(C)[C@@]4(F)[C@@H](O)C[C@]3(C)[C@]2(C(=O)CO)O1` [FLUOCINOLONE ACETONIDE], the IC50 result (in data set [1]; at Mu-type opioid receptor (cho-k1); against Cytochrome P450 2A6; at Insulin receptor; against Leukotriene C4 synthase; in data set [2]) was “Not Active” throughout. In data set [3], the IC50 (as a rule, the midpoint of a concentration-inhibition curve) was “Not Active”. Also, the Ki (usually the dissociation constant of the complex between target and ligand, obtained from inhibition or displacement) at Cytochrome P450 2A6 is “Not Active”.
With `CC1(C)O[C@@H]2C[C@H]3[C@@H]4C[C@H](F)C5=CC(=O)CC[C@]5(C)[C@H]4[C@@H](O)C[C@]3(C)[C@]2(C(=O)CO)O1` [FLURANDRENOLIDE], the IC50 result (in data set [1]; at Mu-type opioid receptor (cho-k1); against Cytochrome P450 2A6; against Insulin receptor; on Leukotriene C4 synthase; in data set [2]) was “Not Active” each time. Moreover, the IC50 entry in data set [3] is “Not Active”. In addition, the Ki entry on Cytochrome P450 2A6 is on record as “Not Active”.
`CN(C)c1ccc(C(=C2C=CC(=[N+](C)C)C=C2)c2ccc(N(C)C)cc2)cc1.[Cl-]` [GENTIAN VIOLET]: the IC50 result in data set [1] is “Not Active”; at Mu-type opioid receptor (read-out: IC50), 2150 nM; at Cytochrome P450 2A6 it was “Not Active”; at Insulin receptor, “Not Active”; against Leukotriene C4 synthase it was “Not Active”; in data set [2] it was “Not Active”. For the same molecule, the IC50 entry in data set [3] is “Not Active”. In addition, the inhibitory constant (Ki) at Mu-type opioid receptor (read-out: Ki) was 871 nM; on Cytochrome P450 2A6 it was “Not Active”.
On to `Cc1ccc(S(=O)(=O)NC(=O)NN2CC3CCCC3C2)cc1` (centres undefined) [GLICLAZIDE], for which the IC50 result (in data set [1]; on Mu-type opioid receptor (cho-k1); against Cytochrome P450 2A6; against Insulin receptor; on Leukotriene C4 synthase; in data set [2]) was “Not Active” in each case. Moreover, the half-maximal inhibitory concentration (IC50) entry in data set [3] was “Not Active”. Moreover, on Cytochrome P450 2A6, the Ki entry is “Not Active”.
In the case of `CC(C)Cc1ccc(C(C)C(=O)O)cc1` (centres undefined) [IBUPROFEN], the IC50 entry (in data set [1]; at Mu-type opioid receptor (cho-k1); at Cytochrome P450 2A6; at Insulin receptor; at Leukotriene C4 synthase; in data set [2]) was “Not Active” throughout. For the same molecule, the half-inhibitory concentration (IC50) result in data set [3] was “Not Active”. Also, the inhibition constant Ki result on Cytochrome P450 2A6 was “Not Active”.
For `COc1ccc2c(c1)c(CC(=O)O)c(C)n2C(=O)c1ccc(Cl)cc1` [INDOMETHACIN], the IC50 entry (in data set [1]; at Mu-type opioid receptor (cho-k1); at Cytochrome P450 2A6; against Insulin receptor; against Leukotriene C4 synthase; in data set [2]) was “Not Active” throughout. Further, the half-inhibitory concentration (IC50) entry in data set [3] was “Not Active”. Moreover, the Ki entry on Cytochrome P450 2A6 was “Not Active”.
In the case of `CCc1c2c(nc3ccc(OC(=O)N4CCC(N5CCCCC5)CC4)cc13)-c1cc3c(c(=O)n1C2)COC(=O)[C@]3(O)CC` [IRINOTECAN], the IC50 result (in data set [1]; at Mu-type opioid receptor (cho-k1); against Cytochrome P450 2A6; against Insulin receptor; against Leukotriene C4 synthase; in data set [2]) was “Not Active” throughout. The half-maximal inhibitory concentration (IC50) result in data set [3] is listed as “Not Active”. For the same molecule, on Cytochrome P450 2A6, the inhibition constant Ki result is on record as “Not Active”.
As for `CC(C(=O)O)c1cccc(C(=O)c2ccccc2)c1` (centres undefined) [KETOPROFEN], the IC50 result (in data set [1]; on Mu-type opioid receptor (cho-k1); against Cytochrome P450 2A6; against Insulin receptor; on Leukotriene C4 synthase; in data set [2]) was “Not Active” each time. The IC50 entry in data set [3] is recorded as “Not Active”. The inhibition constant Ki result on Cytochrome P450 2A6 is given as “Not Active”.
In the case of `Nc1ccn([C@@H]2CS[C@H](CO)O2)c(=O)n1` [LAMIVUDINE], the IC50 result (in data set [1]; on Mu-type opioid receptor (cho-k1); at Cytochrome P450 2A6; on Insulin receptor; against Leukotriene C4 synthase; in data set [2]) was “Not Active” throughout. Moreover, the IC50 result in data set [3] is “Not Active”. On Cytochrome P450 2A6, the Ki entry is reported as “Not Active”.
As to `O=S(=O)([O-])CCS.[Na+]` [MESNA], the IC50 result (in data set [1]; at Mu-type opioid receptor (cho-k1); on Cytochrome P450 2A6; against Insulin receptor; on Leukotriene C4 synthase; in data set [2]) was “Not Active” each time. In addition, the half-inhibitory concentration (IC50) entry in data set [3] was “Not Active”. In addition, the inhibitory constant (Ki) entry on Cytochrome P450 2A6 is listed as “Not Active”.
As for `C#C[C@]1(O)CC[C@H]2[C@@H]3CCc4cc(OC)ccc4[C@H]3CC[C@@]21C` [MESTRANOL], the half-inhibitory concentration (IC50) entry (in data set [1]; on Mu-type opioid receptor (cho-k1); against Cytochrome P450 2A6; at Insulin receptor; against Leukotriene C4 synthase; in data set [2]) was “Not Active” each time. For the same molecule, the concentration for half-maximal inhibition (IC50) entry in data set [3] is reported as “Not Active”. Besides, the Ki result at Cytochrome P450 2A6 was “Not Active”.
On to `CC(=O)Nc1cccc(O)c1` [METACETAMOL], for which the half-maximal inhibitory concentration (IC50) result (in data set [1]; at Mu-type opioid receptor (cho-k1); against Cytochrome P450 2A6; on Insulin receptor; on Leukotriene C4 synthase; in data set [2]) was “Not Active” in each case. The IC50 entry in data set [3] is listed as “Not Active”. For the same molecule, the Ki entry on Cytochrome P450 2A6 is recorded as “Not Active”.
Take `Cc1ncc([N+](=O)[O-])n1CCO` [METRONIDAZOLE]: the IC50 result (in data set [1]; on Mu-type opioid receptor (cho-k1); at Cytochrome P450 2A6; at Insulin receptor; on Leukotriene C4 synthase; in data set [2]) was “Not Active” each time. Besides, in data set [3], the half-maximal inhibitory concentration (IC50) entry was “Not Active”. Further, the Ki result on Cytochrome P450 2A6 is listed as “Not Active”.
Consider `CC(C)(C(=O)c1cccnc1)c1cccnc1` [METYRAPONE], for which the IC50 entry (in data set [1]; on Mu-type opioid receptor (cho-k1); at Cytochrome P450 2A6; against Insulin receptor; against Leukotriene C4 synthase; in data set [2]) was “Not Active” throughout. In addition, the IC50 entry in data set [3] is recorded as “Not Active”. Also, the inhibition constant (Ki) result at Cytochrome P450 2A6 is on record as “Not Active”.
With `Oc1ccc(OCc2ccccc2)cc1` [MONOBENZONE], the IC50 entry (in data set [1]; on Mu-type opioid receptor (cho-k1); against Cytochrome P450 2A6; against Insulin receptor; against Leukotriene C4 synthase; in data set [2]) was “Not Active” in each case. In data set [3], the IC50 result was “Not Active”. Further, on Cytochrome P450 2A6, the inhibition constant (Ki) result was “Not Active”.
In the case of `CC(C)(Oc1ccc(C2CCCc3ccccc32)cc1)C(=O)O` (centres undefined) [NAFENOPIN], the IC50 result (in data set [1]; on Mu-type opioid receptor (cho-k1); against Cytochrome P450 2A6; against Insulin receptor; against Leukotriene C4 synthase; in data set [2]) was “Not Active” each time. Besides, the half-maximal inhibitory concentration (IC50) entry in data set [3] was “Not Active”. For the same molecule, at Cytochrome P450 2A6, the inhibitory constant (Ki) entry was “Not Active”.
